USRE47689E1, “Compounds for treating spinal muscular atrophy” (PTC Therapeutics, Inc., priority 2011, dated 2019)
Where a name gives a salt, the structure may show the parent alone. Read-outs that look alike come from different tables or passages of the source.

What was measured:
[1] = test system: SMN2 minigene (full length SMN2 minigene mRNA containing SMN2 exon 7); test: SMN2 minigene mRNA splicing RT-qPCR assay in cultured cells; assay type: cell-based, human; details: for EC (1.5-fold): Homo sapiens, HEK293-H, read-out: EC1.5x for production of full length SMN2 mRNA
Summary of the method: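 Read-out: full-length (exon 7-included) SMN2 minigene mRNA by multiplex RT-qPCR with GAPDH, efficiency-corrected (1+E)^−Ct, GAPDH-normalized and divided by vehicle. Stably transfected HEK293H cells, 24 h compound exposure, duplicates per concentration. Value is EC1.5x, reported as star ranges.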

Smn protein = Smn protein assay in cultured cells (SMN HTRF); assay type: cell-based, human; details: for EC1.5x (concentration giving 1.5-fold Smn protein increase): SMA Type 1 patient fibroblast cells (GM03813), 7-point concentration curve, SMN HTRF, concentration producing 1.5 times Smn protein vs DMSO vehicle control, read-out: EC1.5x for Smn protein expression
Summary of the method: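 Lysates in RIPA with protease inhibitors are incubated overnight at room temperature with HTRF anti-SMN antibodies. EC1.5x is derived from fold increase in ΔF over vehicle.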

[2] = HEK293H cells stably transfected with SMN2-A minigene, 24 hours, 7-point concentration curve, 1.5-fold relative to vehicle-treated cells
[3] = SMA patient fibroblast cells, 48 hours, 7-point concentration data, fold increase relative to vehicle control (SMN HTRF)

`Cl.O=c1oc2cc(N3CCNCC3)ccc2cc1-c1nc2c(F)cccc2o1` [Compound 40, 3-(4-fluoro-1,3-benzoxazol-2-yl)-7-(piperazin-1-yl)-2H-chromen-2-one hydrochloride] was tested, and the EC (1.5-fold) [1, 2] was 1 to 3 µM and the “maximum fold (Fold) increase of Smn protein” value (“maximum fold (Fold) increase” for short) (Smn protein; [3]) was “** (fold increase between >1.2 and ≤1.35)”.

With `CCCN1CCC(c2ccc3cc(-c4cn5cc(C)ncc5n4)c(=O)oc3c2)CC1` [Compound 887, 3-(6-methylimidazo[1,2-a]pyrazin-2-yl)-7-(1-propylpiperidin-4-yl)-2H-chromen-2-one] the EC (1.5-fold) [1, 2] was less than 0.1 µM, the EC1.5x (concentration giving 1.5-fold Smn protein increase) (Smn protein; 48 hours) was less than 300 nM and the “maximum fold (Fold) increase” value (Smn protein; [3]) was “***** (fold increase >1.65)”.

`Cc1cn2cc(-c3cc4ccc(N5CCNCC5)cc4oc3=O)cc(F)c2n1` [Compound 986, 3-(8-fluoro-2-methylimidazo[1,2-a]pyridin-6-yl)-7-(piperazin-1-yl)-2H-chromen-2-one] was tested, and the EC (1.5-fold) [1, 2] was less than 0.1 µM, the EC1.5x (concentration giving 1.5-fold Smn protein increase) (Smn protein; 48 hours) was less than 300 nM and the “maximum fold (Fold) increase” value (Smn protein; [3]) was “***** (fold increase >1.65)”.

In the case of `Cc1cc2sc(-c3cc4ccc(N5CCNCC5)cc4oc3=O)cc2c(C)n1` [Compound 817, 3-(4,6-dimethylthieno[3,2-c]pyridin-2-yl)-7-(piperazin-1-yl)-2H-chromen-2-one], the EC (1.5-fold) [1, 2] is reported as less than 0.1 µM and the “maximum fold (Fold) increase” value (Smn protein; [3]) is reported as “** (fold increase between >1.2 and ≤1.35)”.

In the case of `Cc1cn2cc(-c3cc4ccc(N5CCN6CCC[C@H]6C5)cc4oc3=O)nc2cn1` [Compound 609, 7-[(8aS)-hexahydropyrrolo[1,2-a]pyrazin-2(1H)-yl]-3-(6-methylimidazo[1,2-a]pyrazin-2-yl)-2H-chromen-2-one], the EC (1.5-fold) [1, 2] is reported as less than 0.1 µM, the EC1.5x (concentration giving 1.5-fold Smn protein increase) (Smn protein; 48 hours) is reported as less than 300 nM and the “maximum fold (Fold) increase” value (Smn protein; [3]) is reported as “***** (fold increase >1.65)”.

With `O=c1oc2cc(OC3CCNC3)ccc2cc1-c1cn2cccnc2n1` (stereo in doubt) [Cpd 321, 3-(imidazo[1,2-a]pyrimidin-2-yl)-7-[(3R)-pyrrolidin-3-yloxy]-2H-chromen-2-one hydrochloride (1:2)] the EC (1.5-fold) ([1]; 24 h) was 1 to 3 µM and the “maximum fold (Fold) increase” value (Smn protein) was “** (key: *: maximum fold increase of ≤1.2; **: fold increase between >1.2 and ≤1.35; ***: fold increase between >1.35 and ≤1.5; ****: fold increase between >1.5 and ≤1.65; *****: fold increase >1.65)”.

For `CSc1nccn2cc(-c3cc4ccc(N5CCNCC5)cc4oc3=O)nc12` [Cpd 398, 3-[8-(methylsulfanyl)imidazo[1,2-a]pyrazin-2-yl]-7-(piperazin-1-yl)-2H-chromen-2-one], the EC (1.5-fold) [1, 2] was 1 to 3 µM and the “maximum fold (Fold) increase” value (Smn protein; [3]) was “* (maximum fold increase of ≤1.2)”.

In the case of `Cc1cn2cc(-c3cc4ccc(N5CCN6C(=O)CCC6C5)cc4oc3=O)nc2c(C)n1` (stereo not shown) [Compound 973, 2-[3-(6,8-dimethylimidazo[1,2-a]pyrazin-2-yl)-2-oxo-2H-chromen-7-yl]hexahydropyrrolo[1,2-a]pyrazin-6(2H)-one], the EC (1.5-fold) [1, 2] is reported as 3 to 30 µM and the “maximum fold (Fold) increase” value (Smn protein; [3]) is reported as “* (maximum fold increase of ≤1.2)”.

For `Cc1cccc2oc(-c3cc4ccc(N5CCNCC5)cc4oc3=O)nc12.Cl` [Compound 22, 3-(4-methyl-1,3-benzoxazol-2-yl)-7-(piperazin-1-yl)-2H-chromen-2-one hydrochloride], the EC (1.5-fold) [1, 2] was 3 to 30 µM and the “maximum fold (Fold) increase” value (Smn protein; [3]) was “* (maximum fold increase of ≤1.2)”.

In the case of `Cc1cn2cc(-c3cc4ccc(N5CC[C@@H](CN)C5)cc4oc3=O)nc2c(C)n1` [Compound 964, 7-[(3S)-3-(aminomethyl)pyrrolidin-1-yl]-3-(6,8-dimethylimidazo[1,2-a]pyrazin-2-yl)-2H-chromen-2-one], the EC (1.5-fold) [1, 2] is reported as 0.1 to 0.3 µM and the “maximum fold (Fold) increase” value (Smn protein; [3]) is reported as “** (fold increase between >1.2 and ≤1.35)”.

For `O=c1oc2cc(OC[C@@H]3CCCN3)ccc2cc1-c1nc2ccccc2s1` [Compound 56, 3-(1,3-benzothiazol-2-yl)-7-[(2S)-pyrrolidin-2-ylmethoxy]-2H-chromen-2-one], the EC (1.5-fold) [1, 2] was 3 to 30 µM and the “maximum fold (Fold) increase” value (Smn protein; [3]) was “* (maximum fold increase of ≤1.2)”.

`O=c1oc2cc(N3CCNCC3)ccc2cc1-c1cn2cc(Cl)ccc2n1` [Compound 71, 3-(6-chloroimidazo[1,2-a]pyridin-2-yl)-7-(piperazin-1-yl)-2H-chromen-2-one] was tested, and the EC (1.5-fold) [1, 2] was 1 to 3 µM and the “maximum fold (Fold) increase” value (Smn protein; [3]) was “** (fold increase between >1.2 and ≤1.35)”.

In the case of `O=c1oc2cc(N3CC4CC3CN4)ccc2cc1-c1nc2ccccc2o1` (stereo not shown) [Compound 85, 3-(1,3-benzoxazol-2-yl)-7-(2,5-diazabicyclo[2.2.1]hept-2-yl)-2H-chromen-2-one], the EC (1.5-fold) [1, 2] is reported as 3 to 30 µM and the “maximum fold (Fold) increase” value (Smn protein; [3]) is reported as “* (maximum fold increase of ≤1.2)”.

With `CC(=O)O.Cc1ccn2cc(-c3cc4ccc(N(C)C5CCN(Cc6ccccc6)C5)cc4oc3=O)nc2n1` (stereo not shown) [Compound 377, 7-[(1-benzylpyrrolidin-3-yl)(methyl)amino]-3-(7-methylimidazo[1,2-a]pyrimidin-2-yl)-2H-chromen-2-one acetate] the EC (1.5-fold) [1, 2] was 0.3 to 1 µM and the “maximum fold (Fold) increase” value (Smn protein; [3]) was “* (maximum fold increase of ≤1.2)”.

`CCN1[C@H](C)CN(c2ccc3cc(-c4cn5cc(C)ncc5n4)c(=O)oc3c2)C[C@@H]1C` [Compound 797, 7-[(3R,5S)-4-ethyl-3,5-dimethylpiperazin-1-yl]-3-(6-methylimidazo[1,2-a]pyrazin-2-yl)-2H-chromen-2-one] was tested, and the EC (1.5-fold) [1, 2] was less than 0.1 µM, the EC1.5x (concentration giving 1.5-fold Smn protein increase) (Smn protein; 48 hours) was less than 300 nM and the “maximum fold (Fold) increase” value (Smn protein; [3]) was “**** (fold increase between >1.5 and ≤1.65)”.

In the case of `Cc1cn2cc(-c3cc4c(F)cc(N5CCN[C@@H](C)C5)cc4oc3=O)nc2cn1` [Compound 593, 5-fluoro-3-(6-methylimidazo[1,2-a]pyrazin-2-yl)-7-[(3S)-3-methylpiperazin-1-yl]-2H-chromen-2-one], the EC (1.5-fold) [1, 2] is reported as less than 0.1 µM, the EC1.5x (concentration giving 1.5-fold Smn protein increase) (Smn protein; 48 hours) is reported as less than 300 nM and the “maximum fold (Fold) increase” value (Smn protein; [3]) is reported as “***** (fold increase >1.65)”.

For `Cc1cn2cc(-c3cc4ccc(N5C[C@@H]6C[C@H]5CN6)cc4oc3=O)nc2c(C)n1` [Compound 648, 7-[(1S,4S)-2,5-diazabicyclo[2.2.1]hept-2-yl]-3-(6,8-dimethylimidazo[1,2-a]pyrazin-2-yl)-2H-chromen-2-one], the EC (1.5-fold) [1, 2] was less than 0.1 µM, the EC1.5x (concentration giving 1.5-fold Smn protein increase) (Smn protein; 48 hours) was less than 300 nM and the “maximum fold (Fold) increase” value (Smn protein; [3]) was “***** (fold increase >1.65)”.

With `Cc1cn2cc(-c3cc4ccc(C5CCNCC5)cc4oc3=O)ccc2n1` [Cpd 825, 3-(2-methylimidazo[1,2-a]pyridin-6-yl)-7-(piperidin-4-yl)-2H-chromen-2-one] the EC (1.5-fold) [1, 2] was less than 0.1 µM, the EC1.5x (concentration giving 1.5-fold Smn protein increase) (Smn protein; 48 hours) was less than 300 nM and the “maximum fold (Fold) increase” value (Smn protein; [3]) was “***** (fold increase >1.65)”.

With `Cc1cn2cc(-c3cc4ccc(N5CCC6(CC5)CNC6)cc4oc3=O)nc2c(C)n1` [Compound 976, 7-(2,7-diazaspiro[3.5]non-7-yl)-3-(6,8-dimethylimidazo[1,2-a]pyrazin-2-yl)-2H-chromen-2-one] the EC (1.5-fold) [1, 2] was less than 0.1 µM, the EC1.5x (concentration giving 1.5-fold Smn protein increase) (Smn protein; 48 hours) was 1000 to 3000 nM and the “maximum fold (Fold) increase” value (Smn protein; [3]) was “*** (fold increase between >1.35 and ≤1.5)”.

For `CN(C)[C@H]1[C@@H]2CN(c3ccc4cc(-c5cn6cccnc6n5)c(=O)oc4c3)C[C@@H]21` [Compound 439, 7-[(1R,5S,6s)-6-(dimethylamino)-3-azabicyclo[3.1.0]hex-3-yl]-3-(imidazo[1,2-a]pyrimidin-2-yl)-2H-chromen-2-one], the “EC1.5x for production of full length SMN2 mRNA” value [1, 2] was “* (between >3 μM and ≤30 μM)” and the “maximum fold (Fold) increase” value (Smn protein; [3]) was “** (fold increase between >1.2 and ≤1.35)”.

For `Cc1cn2cc(-c3cc4ccc(N5CC6(CNC6)C5)cc4oc3=O)nc2c(C)n1` [Cpd 971, 7-(2,6-diazaspiro[3.3]hept-2-yl)-3-(6,8-dimethylimidazo[1,2-a]pyrazin-2-yl)-2H-chromen-2-one], the EC (1.5-fold) [1, 2] was less than 0.1 µM, the EC1.5x (concentration giving 1.5-fold Smn protein increase) (Smn protein; 48 hours) was less than 300 nM and the “maximum fold (Fold) increase” value (Smn protein; [3]) was “***** (fold increase >1.65)”.

For `Cc1nc(Cl)cn2cc(-c3cc4ccc(N5C[C@@H]6C[C@H]5CN6C)cc4oc3=O)nc12` [Compound 787, 3-(6-chloro-8-methylimidazo[1,2-a]pyrazin-2-yl)-7-[(1S,4S)-5-methyl-2,5-diazabicyclo[2.2.1]hept-2-yl]-2H-chromen-2-one], the EC (1.5-fold) [1, 2] was less than 0.1 µM, the EC1.5x (concentration giving 1.5-fold Smn protein increase) (Smn protein; 48 hours) was 300 to 1000 nM and the “maximum fold (Fold) increase” value (Smn protein; [3]) was “*** (fold increase between >1.35 and ≤1.5)”.

In the case of `Cc1ccn2cc(-c3cc4ccc(N5CCN(C)CC5)cc4oc3=O)nc2n1` [Compound 224, 3-(7-methylimidazo[1,2-a]pyrimidin-2-yl)-7-(4-methylpiperazin-1-yl)-2H-chromen-2-one], the EC (1.5-fold) [1, 2] is reported as 0.3 to 1 µM and the “maximum fold (Fold) increase” value (Smn protein; [3]) is reported as “* (maximum fold increase of ≤1.2)”.

With `Cc1cn2cc(-c3cc4ccc(N5CCN[C@H](C)C5)cc4oc3=O)ccc2n1` [Compound 652, 3-(2-methylimidazo[1,2-a]pyridin-6-yl)-7-[(3R)-3-methylpiperazin-1-yl]-2H-chromen-2-one] the EC (1.5-fold) [1, 2] was less than 0.1 µM, the EC1.5x (concentration giving 1.5-fold Smn protein increase) (Smn protein; 48 hours) was less than 300 nM and the “maximum fold (Fold) increase” value (Smn protein; [3]) was “**** (fold increase between >1.5 and ≤1.65)”.

`O=c1oc2cc(N3CCNCC3)ccc2cc1-c1nc2c(Cl)cccc2s1` [Cpd 5, 3-(4-chloro-1,3-benzothiazol-2-yl)-7-(piperazin-1-yl)-2H-chromen-2-one hydrochloride] was tested, and the EC (1.5-fold) [1, 2] was 0.3 to 1 µM and the “maximum fold (Fold) increase” value (Smn protein; [3]) was “* (maximum fold increase of ≤1.2)”.
